Measurements from patent US10238670B2, “9-aminomethyl minocycline compounds and methods of use thereof in urinary tract infection (UTI) treatment” (Paratek Pharmaceuticals, Inc., priority 2016, dated 2019).

Columns and labels:
E. coli FQR = test: In vitro MIC, 2010 surveillance isolates; format: cell-based, Escherichia coli; conditions: N=1264
[1] = 14C-labeled Compound 1 single oral 300 mg dose, plasma and urine; format: in vivo, human; conditions: for AUC(0-inf): 300 mg
Description: ^14C-labeled Compound 1 was administered as a single oral 300 mg dose to healthy human subjects. […] The concentrations of Compound 1 in urine are shown in Table 2 and indicate that urine concentrations exceed the plasma concentrations throughout the dosing interval. The AUC0-24 in urine was 186.1 μg*hr/ml.
While the driver of efficacy for Compound 1 in UTI is not completely known, and while not wishing to be bound by any particular theory, Applicant believes that maximizing time of urine concentration above pathogen MIC (ideally, throughout the dosing interval) is desirable. This belief is partly based on a clinical study that evaluated the disposition of a single 300 mg oral dose of ^14C-Compound 1. In this study, plasma concentrations were consistent with previous oral dosing studies (area under the concentration-time curve from 0 to infinity [AUC0-inf] 9.4 μg·h/mL), and it was determined that approximately 40% of the absorbed dose was eliminated in the urine. Urine concentrations of Compound 1 were not measured directly but estimated concentrations (based on portion of excreted radioactivity) exceeded plasma concentrations and averaged between 7.6 and 11.2 μg/mL over the 24 hours following dosing. These urine concentrations would exceed the MIC90 for ESBL-producing E. coli (4 μg/mL) by approximately 2-fold. It is also known from Applicant's clinical studies that exposure to Compound 1 based on plasma concentrations is approximately 50% higher at steady-state than after a single dose.

Phase 1 studies, safety = format: in vivo, human
Description: In the Phase 1 studies, 536 subjects were exposed to Compound 1 IV or oral formulations. Single IV doses up to 600 mg and single oral doses up to 600 mg have been investigated. Multiple IV doses of 100 mg once daily and 200 mg once daily for up to 14 and 7 consecutive days, respectively, have been investigated.

K. pneumoniae FQS = test: In vitro MIC, 2010 surveillance isolates; format: cell-based, Klebsiella pneumoniae; conditions: N=1561
S. saprophyticus = test: In vitro activity in urine relative to standard media; format: cell-based

CN(C)c1cc(CNCC(C)(C)C)c(O)c2c1C[C@H]1C[C@H]3[C@H](N(C)C)C(O)=C(C(N)=O)C(=O)[C@@]3(O)C(O)=C1C2=O [Compound 1, 9-[(2,2-dimethyl-propylamino)-methyl]-minocycline]
Cumulative % Inhibition at MIC (E. coli FQR; MIC 1 μg/ml): 64.4%
Cumulative % Inhibition at MIC (E. coli FQR; MIC 2 μg/ml): 89.2%
Cumulative % Inhibition at MIC (E. coli FQR; MIC 4 μg/ml): 97.7%
Cumulative % Inhibition at MIC (E. coli FQR; MIC 8 μg/ml): 99.6%
Cumulative % Inhibition at MIC (E. coli FQR; MIC 16 μg/ml): 99.9%
Cumulative % Inhibition at MIC (E. coli FQR; MIC ≤0.5 μg/ml, listed as head image P00008): 29.6%
Cumulative % Inhibition at MIC (E. coli FQR; MIC ≥32 μg/ml): 100%
absorbed dose eliminated in the urine ([1]; human, in vivo, po): approximately 40%
estimated concentrations in urine, average over 24 hours ([1]; human, in vivo, po): 7.6 and 11.2
urine concentration relative to 4 μg/mL (MIC90 for ESBL-producing E. coli) ([1]; human, in vivo, po): approximately 2 fold
AUC(0-inf) ([1]; human, in vivo, po, plasma AUC0-inf): 9400 ng·h/mL
AUC(0-inf) ([1]; human, in vivo, po, plasma AUCinf): 9420 ng·h/mL
plasma Cmax ([1]; single oral 300 mg dose, healthy subjects): 563 ng/mL
discontinuations due to drug-related adverse events (Phase 1 studies, safety; all Phase 1 studies, subjects who received multiple doses): no discontinuations due to drug-related adverse events
serious adverse events (Phase 1 studies, safety; multiple p.o. doses of 200 mg and 300 mg once daily for up to 10 consecutive days): without any serious adverse events
Cumulative % Inhibition at MIC (K. pneumoniae FQS; MIC 1 μg/ml): 29.6%
Cumulative % Inhibition at MIC (K. pneumoniae FQS; MIC 2 μg/ml): 79.3%
Cumulative % Inhibition at MIC (K. pneumoniae FQS; MIC 4 μg/ml): 92.5%
Cumulative % Inhibition at MIC (K. pneumoniae FQS; MIC 8 μg/ml): 95.9%
Cumulative % Inhibition at MIC (K. pneumoniae FQS; MIC 16 μg/ml): 98.5%
Cumulative % Inhibition at MIC (K. pneumoniae FQS; MIC ≤0.5 μg/ml, listed as head image P00011): 2.4%
Cumulative % Inhibition at MIC (K. pneumoniae FQS; MIC ≥32 μg/ml): 100%
activity in urine relative to standard media (S. saprophyticus): stable
